Experimental data from PubChem BioAssay AID248 (DTP/NCI, 2004).
Values joined by “and” are separate entries in the source; they are usually repeats but may differ in a detail not shown here. Identical values can stand only once. Inconclusive results and toxic doses are left out. Rule as the data show it: active = T/C of 150% or more; inactive = T/C below 125%.

System: L1210 leukemia ip in BDF1 mice, survival T/C
Experiment: NCI In Vivo Anticancer Drug Screen. Data for tumor model L1210 Leukemia (intraperitoneal) in B6D2F1 (BDF1) mice
Conditions: endpoint: mean survival time, higher = longer survival
Procedure, shortened: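 Transplanted-tumor mice were given test agent; controls received vehicle only. Survival readings from the two groups were divided (treated over control).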

Measured: T/C

O=C1NC(c2cccc3ccccc23)Nc2ccccc21 (centres undefined)
inactive: dose: 12.5 mg/kg/injection, schedule: Q01DX009 (oral), vehicle: Klucel (hydroxypropylcellulose) (HPC) 111 % of control | dose: 12.5 mg/kg/injection, schedule: Q01DX009 (oral), vehicle: methylcellulose (MC) 103 % of control and 109 % of control | dose: 16.0 mg/kg/injection, schedule: Q01DX009 (ip), vehicle: Klucel (hydroxypropylcellulose) (HPC) 100 % of control | dose: 16.0 mg/kg/injection, schedule: Q01DX009 (sc), vehicle: Klucel (hydroxypropylcellulose) (HPC) 98 % of control | dose: 16.0 mg/kg/injection, schedule: Q03HX008 (ip), vehicle: Klucel (hydroxypropylcellulose) (HPC) 109 % of control | dose: 16.0 mg/kg/injection, schedule: Q03HX016 (ip), vehicle: Klucel (hydroxypropylcellulose) (HPC) 104 % of control | dose: 16.0 mg/kg/injection, schedule: Q03HX024 (ip), vehicle: Klucel (hydroxypropylcellulose) (HPC) 102 % of control | dose: 32.0 mg/kg/injection, schedule: Q01DX009 (ip), vehicle: Klucel (hydroxypropylcellulose) (HPC) 98 % of control | dose: 32.0 mg/kg/injection, schedule: Q01DX009 (sc), vehicle: Klucel (hydroxypropylcellulose) (HPC) 102 % of control | dose: 40.0 mg/kg/injection, schedule: Q01DX009 (ip), vehicle: methylcellulose (MC) 110 % of control | dose: 40.0 mg/kg/injection, schedule: Q01DX009 (ip), vehicle: other 107 % of control | dose: 40.0 mg/kg/injection, schedule: Q01DX009 (oral), vehicle: Klucel (hydroxypropylcellulose) (HPC) 98 % of control and 100 % of control | dose: 40.0 mg/kg/injection, schedule: Q01DX009 (oral), vehicle: methylcellulose (MC) 110 % of control | dose: 50.0 mg/kg/injection, schedule: Q01DX009 (oral), vehicle: other 106 % of control | dose: 60.0 mg/kg/injection, schedule: Q01DX009 (oral), vehicle: Klucel (hydroxypropylcellulose) (HPC) 100 % of control and 104 % of control | dose: 60.0 mg/kg/injection, schedule: Q01DX009 (oral), vehicle: methylcellulose (MC) 103 % of control | dose: 62.5 mg/kg/injection, schedule: Q01DX005 (oral), vehicle: saline 97 % of control | dose: 62.5 mg/kg/injection, schedule: Q01DX009 (oral), vehicle: saline 97 % of control | dose: 62.5 mg/kg/injection, schedule: Q01DX009 (oral), vehicle: water 104 % of control | dose: 62.5 mg/kg/injection, schedule: Q04DX003 (oral), vehicle: saline 105 % of control | dose: 64.0 mg/kg/injection, schedule: Q01DX009 (ip), vehicle: Klucel (hydroxypropylcellulose) (HPC) 108 % of control | dose: 64.0 mg/kg/injection, schedule: Q01DX009 (sc), vehicle: Klucel (hydroxypropylcellulose) (HPC) 97 % of control | dose: 80.0 mg/kg/injection, schedule: Q01DX009 (ip), vehicle: methylcellulose (MC) 101 % of control | dose: 80.0 mg/kg/injection, schedule: Q01DX009 (oral), vehicle: Klucel (hydroxypropylcellulose) (HPC) 109 % of control | dose: 80.0 mg/kg/injection, schedule: Q01DX009 (oral), vehicle: methylcellulose (MC) 105 % of control and 110 % of control | dose: 100.0 mg/kg/injection, schedule: Q01DX009 (oral), vehicle: Klucel (hydroxypropylcellulose) (HPC) 100 % of control | dose: 100.0 mg/kg/injection, schedule: Q01DX009 (oral), vehicle: saline 104 % of control and 106 % of control | dose: 100.0 mg/kg/injection, schedule: Q04DX003 (ip), vehicle: other 103 % of control | dose: 100.0 mg/kg/injection, schedule: Q04DX003 (oral), vehicle: Klucel (hydroxypropylcellulose) (HPC) 98 % of control and 104 % of control | dose: 100.0 mg/kg/injection, schedule: Q04DX003 (oral), vehicle: methylcellulose (MC) 104 % of control and 107 % of control | dose: 100.0 mg/kg/injection, schedule: Q04DX003 (oral), vehicle: other 105 % of control | dose: 120.0 mg/kg/injection, schedule: Q01DX009 (oral), vehicle: Klucel (hydroxypropylcellulose) (HPC) 104 % of control | dose: 120.0 mg/kg/injection, schedule: Q01DX009 (oral), vehicle: methylcellulose (MC) 98 % of control | dose: 125.0 mg/kg/injection, schedule: Q01DX005 (oral), vehicle: saline 110 % of control | dose: 125.0 mg/kg/injection, schedule: Q01DX009 (oral), vehicle: Klucel (hydroxypropylcellulose) (HPC) 105 % of control | dose: 125.0 mg/kg/injection, schedule: Q01DX009 (oral), vehicle: saline 103 % of control | dose: 125.0 mg/kg/injection, schedule: Q04DX003 (oral), vehicle: saline 102 % of control | dose: 125.0 mg/kg/injection, schedule: Q04DX003 (oral), vehicle: water 106 % of control | dose: 125.0 mg/kg/injection, schedule: Q07DX002 (ip), vehicle: water 103 % of control | dose: 128.0 mg/kg/injection, schedule: Q01DX001 (ip), vehicle: Klucel (hydroxypropylcellulose) (HPC) 103 % of control | dose: 128.0 mg/kg/injection, schedule: Q01DX001 (sc), vehicle: Klucel (hydroxypropylcellulose) (HPC) 100 % of control | dose: 128.0 mg/kg/injection, schedule: Q01DX009 (ip), vehicle: Klucel (hydroxypropylcellulose) (HPC) 94 % of control | dose: 128.0 mg/kg/injection, schedule: Q01DX009 (sc), vehicle: Klucel (hydroxypropylcellulose) (HPC) 103 % of control | dose: 128.0 mg/kg/injection, schedule: Q04DX003 (ip), vehicle: Klucel (hydroxypropylcellulose) (HPC) 99 % of control | dose: 128.0 mg/kg/injection, schedule: Q08DX002 (ip), vehicle: Klucel (hydroxypropylcellulose) (HPC) 97 % of control | dose: 140.0 mg/kg/injection, schedule: Q01DX009 (ip), vehicle: other 104 % of control | dose: 140.0 mg/kg/injection, schedule: Q01DX009 (oral), vehicle: Klucel (hydroxypropylcellulose) (HPC) 104 % of control and 105 % of control | dose: 140.0 mg/kg/injection, schedule: Q01DX009 (oral), vehicle: methylcellulose (MC) 109 % of control and 111 % of control | dose: 150.0 mg/kg/injection, schedule: Q01DX009 (oral), vehicle: Klucel (hydroxypropylcellulose) (HPC) 107 % of control | dose: 150.0 mg/kg/injection, schedule: Q01DX009 (oral), vehicle: other 108 % of control | dose: 150.0 mg/kg/injection, schedule: Q01DX009 (oral), vehicle: saline 108 % of control | dose: 150.0 mg/kg/injection, schedule: Q04DX003 (ip), vehicle: other 98 % of control | dose: 150.0 mg/kg/injection, schedule: Q04DX003 (oral), vehicle: Klucel (hydroxypropylcellulose) (HPC) 107 % of control and 111 % of control | dose: 150.0 mg/kg/injection, schedule: Q04DX003 (oral), vehicle: methylcellulose (MC) 104 % of control and 105 % of control | dose: 175.0 mg/kg/injection, schedule: Q01DX009 (oral), vehicle: methylcellulose (MC) 105 % of control and 108 % of control | dose: 200.0 mg/kg/injection, schedule: Q04DX003 (ip), vehicle: other 96 % of control | dose: 200.0 mg/kg/injection, schedule: Q04DX003 (oral), vehicle: Klucel (hydroxypropylcellulose) (HPC) 95 % of control and 104 % of control | dose: 200.0 mg/kg/injection, schedule: Q04DX003 (oral), vehicle: methylcellulose (MC) 98 % of control and 104 % of control | dose: 200.0 mg/kg/injection, schedule: Q04DX003 (oral), vehicle: other 108 % of control | dose: 225.0 mg/kg/injection, schedule: Q01DX009 (oral), vehicle: methylcellulose (MC) 110 % of control | dose: 250.0 mg/kg/injection, schedule: Q01DX005 (oral), vehicle: saline 107 % of control | dose: 250.0 mg/kg/injection, schedule: Q01DX009 (oral), vehicle: saline 103 % of control | dose: 250.0 mg/kg/injection, schedule: Q04DX003 (ip), vehicle: Klucel (hydroxypropylcellulose) (HPC) 103 % of control | dose: 250.0 mg/kg/injection, schedule: Q04DX003 (oral), vehicle: Klucel (hydroxypropylcellulose) (HPC) 108 % of control | dose: 250.0 mg/kg/injection, schedule: Q04DX003 (oral), vehicle: methylcellulose (MC) 103 % of control and 104 % of control | dose: 250.0 mg/kg/injection, schedule: Q04DX003 (oral), vehicle: saline 105 % of control | dose: 250.0 mg/kg/injection, schedule: Q04DX003 (oral), vehicle: water 104 % of control | dose: 250.0 mg/kg/injection, schedule: Q07DX002 (ip), vehicle: water 97 % of control | dose: 256.0 mg/kg/injection, schedule: Q01DX001 (ip), vehicle: Klucel (hydroxypropylcellulose) (HPC) 103 % of control | dose: 256.0 mg/kg/injection, schedule: Q01DX001 (sc), vehicle: Klucel (hydroxypropylcellulose) (HPC) 101 % of control | dose: 256.0 mg/kg/injection, schedule: Q01DX009 (sc), vehicle: Klucel (hydroxypropylcellulose) (HPC) 94 % of control | dose: 256.0 mg/kg/injection, schedule: Q04DX003 (ip), vehicle: Klucel (hydroxypropylcellulose) (HPC) 111 % of control | dose: 256.0 mg/kg/injection, schedule: Q08DX002 (ip), vehicle: Klucel (hydroxypropylcellulose) (HPC) 111 % of control | dose: 300.0 mg/kg/injection, schedule: Q04DX003 (ip), vehicle: Klucel (hydroxypropylcellulose) (HPC) 94 % of control | dose: 300.0 mg/kg/injection, schedule: Q04DX003 (oral), vehicle: Klucel (hydroxypropylcellulose) (HPC) 109 % of control and 111 % of control | dose: 300.0 mg/kg/injection, schedule: Q04DX003 (oral), vehicle: methylcellulose (MC) 108 % of control | dose: 500.0 mg/kg/injection, schedule: Q01DX005 (oral), vehicle: saline 107 % of control | dose: 500.0 mg/kg/injection, schedule: Q01DX009 (oral), vehicle: saline 110 % of control | dose: 500.0 mg/kg/injection, schedule: Q04DX003 (oral), vehicle: saline 108 % of control | dose: 500.0 mg/kg/injection, schedule: Q04DX003 (oral), vehicle: water 107 % of control | dose: 512.0 mg/kg/injection, schedule: Q01DX001 (sc), vehicle: Klucel (hydroxypropylcellulose) (HPC) 102 % of control | dose: 1000.0 mg/kg/injection, schedule: Q01DX005 (oral), vehicle: saline 108 % of control | dose: 1000.0 mg/kg/injection, schedule: Q04DX003 (oral), vehicle: saline 105 % of control | dose: 1024.0 mg/kg/injection, schedule: Q01DX001 (sc), vehicle: Klucel (hydroxypropylcellulose) (HPC) 100 % of control
